According to patent publication EP0326134A1, “4-Amino-2,3-disubstituted-6,7-dihydro-5H-1-pyridine derivatives, process for their preparation and medicaments containing them” (NAUCHNO-ISSLEDOVATELSKY INSTITUT TEKHNOLOGII I BEZOPASNOSTI …, priority 1988, dated 1989):

Tests used:
[1] = tested on: Uterus der Ratte; experiment: Contractile activity of smooth muscle: rat uterus; settings: n = 9
Text: (§1) In Versuchen an glattmpskulären Organen (Uterus, Samenleiter der Ratte und Krummdarm des Meerschweinchens) wurden die Wirkung der erfindungsgemäßen Verbindungen auf die kontraktile Aktivität der glatten Muskeln und ihre Reaktionen auf den Einfluß von Acetylcholin, Serotonin, Adrenalin und KCI als Agonisten untersucht. Mit Hilfe eines Schreibers wurden die Amplitude und die Dauer der Kontraktion der glatten Muskeln unter Verwendung eines Geräts vom Typ Mechanstron-untersucht.

[2] = tested on: Calciumchlorid-Arrhythmie-Modells; experiment: Calcium chloride arrhythmia model (250 mg/kg): ventricular fibrillation, survival; type: in vivo, Ratten; settings: rats, calcium chloride 250 mg/kg
Text: (§2) Die antiarrhythmische Wirkung der erfindungsgemäßen Verbindungen wurde in zwei Versuchsserien untersucht, und zwar an isolierten Präparaten des rechten Vorhofs von Kaninchen und mit Hilfe des Calciumchlorid-Arrhythmie-Modells an Ratten. In den Versuchen an den isolierten Präparaten des rechten Vorhofs wurden mit Hilfe von Mikroelektroden die Dauer des AP sowie der Refraktärzeit (R) und die maximale Hemmung (e) und der Parameter (e/R) untersucht, durch den die Anfälligkeit des Myokards gegenüber der Entstehung von Arrhythmien gekennzeichnet wird. In den Versuchen an Ratten wurden diesen Calciumchlorid in einer Dosierung von 250 mg/kg injiziert. Registriert wurden das Vorliegen von Kammerflimmern und die Lebensdauer der Tiere. Sämtliche erfindungsgemäßen Verbindungen üben eine mäßige antiarrhythmische Wirkung aus. Sie steigern die Refraktärzeit des Muskels und des AP um 35 bis 145 % und verringern gleichzeitig die Anfälligkeit des Myokards, ausgedrückt durch den Parameter e/R um 10 bis 80 % (s. Tabelle 4). In bezug auf diese Wirkung waren die Salze der bicyclischen Basen wirksamer als Amyridin. Bezüglich des Vermögens, die Tiere vor Kammerflimmern und vor dem Tod nach Verabreichung von 250 mg/kg Calciumchlorid zu schützen, waren diese Verbindungen ebenfalls am stärksten wirksam. Bei Verwendung des Calciumchlorid-Arrhythmie-Modells waren viele erfindungsgemäßen Verbindungen stärker wirksam als das klassische Antiarrhythmikum Chinidin (s. M.D. Ma s kovskij, Lekarstvennye sredstva, Bd. 1, S. 401, Moskau, Medicina, 1984).

[3] = Side effects and CNS/behaviour: tremor (TD50), sedative and m-cholinomimetic effects; type: in vivo; settings: for Verhältnis TD50 zu ED50: ED50 = dose blocking the effect of Skopolamin in 50 % of the animals (passive avoidance, mice); for TD50 (Tremor): toxic dose causing tremor in 50 % of the animals
Text: Von Interesse ist der Einfluß der erfindungsgemäßen Verbindungen auf das ZNS und das Verhalten der Tiere.

[4] = tested on: durch Skopolamin hervorgerufene Amnesie; experiment: Dark avoidance assay (passive avoidance), scopolamine-induced amnesia; type: in vivo, Mäusen; settings: mice, compound s.c. 5 min before learning, Skopolamin i.p. 30 min before
Experimental: Die Mäuse wurden dabei in den hellen Abschnitt der Kammer gegeben, wonach die Latenzzeit für den Übertritt in die dunkle Kammer, in der die Tiere einem Stromschlag von 0,5 mA ausgesetzt waren, registriert wurde. Danach erhöhte sich die Latenzzeit für den Übertritt in den dunklen Abschnitt und verringerte sich die Aufenthaltsdauer. 30 Minuten vor dem Versuch wurden den Mäusen i.p. […] Gedächtnisstörungen hervorrufendes Skopolamin als Cholinblocker injiziert. Die erfindungsgemäßen Verbindungen wurden s.c. 5 Minuten vor dem Lernvorgang injiziert. Das Skopolamin verkürzt die Latenzzeit für den Übertritt in die dunkle Kammer, die erfindungsgemäßen Verbindungen stellen jedoch die Latenzzeitwerte wie bei der Kontrollgruppe wieder her oder bedingen ein geringfügiges Überschreiten dieser Werte (siehe Tabelle 2). Gleichzeitig wird die Aufenthaltsdauer der Tiere im dunklen Abschnitt der Kammer auf 36 bis 45 Hundertstel des Ausgangswerts verringert.

[5] = tested on: Nerven-Muskel-Präparat von Mäusen (n.peroneus-m.extensor digitorum longus); experiment: Neuromuscular transmission in isolated nerve-muscle preparation (EPP, minEPP); settings: for Stimulierung der Nerven-Muskelübertragung, in % der Amplitude: EPP: EPP = Endplattenpotential
Text: Der Einfluß der Stoffe auf die Nerven-Muskei-Übertragung wurde am isolierten Nerven-Muskel-Präparat von Mäusen (n.peroneus-m.extensor digitorum longus) (s. Bhattacharyya B. et al. "Neuromuscular blocking action of two hemicholinium-3 analogs" Europ. J. Pharmac. 146, 155-165 /1988/) untersucht, das von Lilly-Lösung perfundiert wurde, durch die man ein Gemisch von 02 und C02 leitete. […] Das Endplattenpotential (EPP) und das Endplattenminiaturpotential (minEPP) wurden mit Hilfe eines Magnetografen aufgezeichnet und danach mit dem Computer ausgewertet. Ermittelt wurden die Frequenz (f), die Amplitude (A) und die Dauer (t) der minEPP und der EPP (s. Tabelle 2).

[6] = tested on: isolierten Präparaten des rechten Vorhofs von Kaninchen; experiment: Antiarrhythmic effect on isolated right atrium preparations (microelectrodes: AP duration, refractory period R, e/R); settings: isolated right atrium of rabbit, microelectrodes
Text: as §2

[7] = tested on: Samenleiter der Ratte; experiment: Contractile activity of smooth muscle: rat vas deferens; settings: Rattus norvegicus, read-out: Adrenalin 1.10^-6: Amplitude, % bezogen auf d.Kontrolle, Samenleiter der Ratte; Konzentration 1.10^-4 Mol; n = 9
Text: as §1

[8] = molecular target: T1, Acetylcholinesterase menschlicher Erythrozyten (Homo sapiens, UniProt P22303); experiment: Acetylcholinesterase inhibition, spectrophotometric; type: biochemical; settings: Acetylcholinesteraseinhibierung bei menschlichen Erythrozyten IK, (Mol), human erythrocyte enzyme
T1 construct: Acetylcholin-esteraseinhi-bierung bei menschlichen Erythrozyten; from tissue; host or cells: human erythrocytes
Text: Untersucht wurden die Wirkmechanismen der erfindungsgemäßen Verbindungen: • 1. Die Wirkung auf Acetylcholinesterase menschlicher Erythrozyten auf spektrofotometrischem Wege. • 2.

[9] = tested on: Zahl der Krämpfe; experiment: Writhing test (intraperitoneal acetic acid); type: in vivo, Mäusen; settings: male mice
Text: Die analgetische Wirkung der erfindungsgemäßen Verbindungen wurde an männlichen Mäusen anhand des "Krampf"-Tests (Writhing-Tests) unter intraperitonealer Injizierung von Essigsäure und des Hot-plate-Tests untersucht. Im ersten Falle wurde die analgetische Wirkung der Verbindungen anhand der prozentualen Verringerung der Zahl der Krämpfe ermittelt. Beim zweiten Test wurde die Schwelle der Schmerzempfindlichkeit (Ablecken der Pfoten) bestimmt. Die stärkste analgetische Wirkung der erfindungsgemäßen Verbindungen zeigte sich beim "Krampf"-Test. Dabei übertrafen die Salze der bicyclischen Basen Amyridin, aber nicht alle erfindungsgemäßen Verbindungen waren schwächer als Morphin (s. Tabelle 4).

[10] = tested on: Wirkung von Hexenal; experiment: Influence on the effect of Hexenal; type: in vivo, Mäusen; settings: mice
[11] = tested on: Orientierungsaktivität; experiment: Influence on orientation activity; type: in vivo, Mäusen; settings: mice
Text: Von Interesse ist der Einfluß der erfindungsgemäßen Verbindungen auf das ZNS und das Verhalten der Tiere. Alle Verbindungen zeigen eine Kombination von stimulierenden und sedativen Eigenschaften und bei höheren Dosen auch eine m-cholinomimetische Wirkung, wobei Tremor, Speichelfluß und Diarrhoe ausgelöst werden.

[12] = Acute toxicity, single intraperitoneal injection, probit analysis (LD50); type: in vivo, Mäusen; settings: mice, i.p.
Text: Ihre akute Toxizität wurde an Mäusen (einmalige intraperitoneale Injektion) nach der Methode der Probit-Analyse nach Zichtfield, Wilcoxon, t949 untersucht. In Tabelle 2 sind die Parameter der akuten Toxizität (LDso) angegeben, die eine mäßige Toxizität der erfindungsgemäßen Verbindungen belegen.

[13] = tested on: K -Durchlässigkeit der Membrane des Ranvier-Schnürringes; experiment: K+ permeability of the node of Ranvier membrane, voltage clamp; set-up: species or system Frosches; settings: node of Ranvier, frog sciatic nerve fibres, voltage clamp; concentration giving 50 % block of ion permeability; read-out: Blockierung der K^+-Durchlässigkeit der Membrane Ic50 (Mol)
Text: (§3) Untersucht wurden die Wirkmechanismen der erfindungsgemäßen Verbindungen: • 1. Die Wirkung auf Acetylcholinesterase menschlicher Erythrozyten auf spektrofotometrischem Wege. • 2. Die Wirkung auf die K - und Na -Durchlässigkeit der Membrane des Ranvier-Schnürringes (s. Fox T.M. et al. "Modification of ionic membrane currrents of Ranvier nodes by UV-radiation under voltage clamp conditions", Experientia, 27, 1289-1290 /1971/ und Arhom P. et al. "Local anesthetics: effects on permeability properties of nodal membrane in myelynated nerve fibres from xenopus". Acta physiol. Scand. 91, 11-21 /1974/) der Nervenfasern des Hüftnervs des Frosches unter Anwendung der Methode der Messung der Membranspannung (Voltage-clampmethode) (s. Derksen H.E. "Axon membrane voltage fluctuations", Acta Physiol., Pharmacol Neer, 13, 373-466 /1965/).
(§4) Alle erfindungsgemäßen Verbindungen sind Blocker für die K^+-Durchlässigkeit der Membrane analog dem Amyridin. Die Salze der bicyclischen Basen blockieren jedoch stärker die Na -Durchlässigkeit der Membrane, was sich mit ihren sedativen und analgetischen Eigenschaften in Verbindung bringen läßt.

[14] = tested on: Na -Durchlässigkeit der Membrane des Ranvier-Schnürringes; experiment: Na+ permeability of the node of Ranvier membrane, voltage clamp; set-up: species or system Frosches; settings: node of Ranvier, frog sciatic nerve fibres, voltage clamp; concentration giving 50 % block of ion permeability; read-out: Blockierung der Na^+-Durchlässigkeit der Membrane Ic50 (Mol)
Text: as §3, §4

T1 sequence (P22303 other isoform, or with tags, fused parts or gaps): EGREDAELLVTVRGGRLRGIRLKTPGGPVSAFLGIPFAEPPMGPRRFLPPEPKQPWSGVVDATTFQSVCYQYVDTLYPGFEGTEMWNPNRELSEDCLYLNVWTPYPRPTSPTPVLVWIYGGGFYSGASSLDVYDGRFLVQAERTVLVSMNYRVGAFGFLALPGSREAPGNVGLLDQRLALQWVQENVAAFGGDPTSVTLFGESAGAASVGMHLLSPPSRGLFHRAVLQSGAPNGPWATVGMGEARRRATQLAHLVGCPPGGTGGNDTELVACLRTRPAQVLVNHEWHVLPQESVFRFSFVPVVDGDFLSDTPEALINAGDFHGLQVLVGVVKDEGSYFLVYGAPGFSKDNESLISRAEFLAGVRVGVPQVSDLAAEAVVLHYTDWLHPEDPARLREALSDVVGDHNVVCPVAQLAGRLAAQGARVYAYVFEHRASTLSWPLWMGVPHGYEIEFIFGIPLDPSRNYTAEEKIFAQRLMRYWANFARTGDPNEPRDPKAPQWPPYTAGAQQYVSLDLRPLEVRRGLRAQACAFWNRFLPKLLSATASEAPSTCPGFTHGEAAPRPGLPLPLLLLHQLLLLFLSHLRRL

SMILES | activity at 100 µM ([1]; Rattus norvegicus, read-out: Serotonin 1.10^-6 (Mol): Amplitude, % bezogen auf die Kontrolle, Uterus der Ratte, Konzentration 1.10^-4 Mol) [%] | Antiarrhythmische Wirkung: Verlängerung d. Lebensdauer von Ratten an Hand des CaCl2-Arrhythmie-Modells, in % [2] [%] | Verhältnis TD50 zu ED50 [3] | TD50 (Tremor) [3] [mg/kg] | Einfluß auf das Gedächtnis: Zahl der Tiere in %, bei denen die Skopolaminwirkung aufgehoben wurde [4] [%] | Stimulierung der Nerven-Muskelübertragung, in % der Amplitude: EPP [5] [%] | Stimulierung der Nerven-Muskelübertragung, in % der Amplitude: minEPP [5] [%] | Antiarrhythmische Wirkung: Verlängerung d. Refraktärzeit (R), in % [6] [%] | activity at 100 µM [7] [%] | Ki [8] [µM] | Analgetische Wirkung: Abnahme d. Zahl der "Krämpfe" bei Mäusen, in % [9] [%] | Änderung der Dauer der Seitenlage, in %: Hexenal 60 mg/kg [10] [%] | Änderung der Orientierungsaktivität, in % [11] [%] | LD50 [12] [mg/kg] | IC50 [13] [µM] | IC50 [14] [µM] | Acetylcholin 1.10^-6 (Mol): Dauer, Min. ([1]; Uterus der Ratte (as head prints), Konzentration 1.10^-5 Mol) [Min.] | Serotonin 1.10^-6 (Mol): Dauer, Min. ([1]; Uterus der Ratte, Konzentration 1.10^-5 Mol) [Min.]
Cc1nc2c(c(N)c1C)CCC2 [Verbindung 10] | 160 | 180 | 7,5 | 6 | 80 | 38 | 79 | 120 | 160 | 0.123 | 60 | 0 | 0 | 15 | – | – | – | –
CCc1nc2c(c(N)c1C)CCC2 [Verbindung 29] | – | – | 12 | 22 | 70 | 18 | 40 | – | – | 6 | – | – | – | 35 | 200 | 300 | – | –
CCc1nc2c(c(N)c1C)CCC2 [Verbindung 30] | – | – | 11 | 22 | 75 | 24 | 45 | – | – | 5.1 | – | – | – | 40 | 280 | 350 | – | –
Nc1c2c(nc3c1CCC3)CCCCC2 [Verbindung 39] | – | – | 7,2 | 18 | 72 | 25 | 60 | – | – | 0.56 | – | – | – | 50 | 480 | 5000 | 22±0.6 | 28±0.5
CCc1nc2c(c(N)c1C)CCC2 [Verbindung 28] | – | – | 11 | 20 | 80 | 22 | 48 | – | – | 6.1 | – | – | – | 40 | 120 | 150 | – | –
Nc1c2c(nc3c1CCC3)CCC2 [Verbindung 37, 8-Amino-1,2,3,5,6,7-hexahydro-1-cyclopenta[b]pyrindinperchlorat] | – | – | 8,2 | 18 | 68 | 30 | 66 | – | – | 0.15 | – | – | – | 38 | 450 | 4200 | – | –
